According to ChEMBL document CHEMBL5346941, “Design, synthesis and evaluation of novel monoamine oxidase B (MAO-B) inhibitors with improved pharmacokinetic properties for Parkinson's disease” (Eur J Med Chem, 2023):
Active and inactive are the calls of the source. The rule behind the calls is not given here.

How the values were obtained:
[1] = Ratio of drug concentration in Sprague-Dawley brain to plasma at 5 mg/kg, ip measured after 120 mins by LC-MS/MS analysis; type: ADME, organism-based; details: rat, read-out: BPR
[2] = Cmax in fasted Sprague-Dawley rat at 5 mg/kg, IG measured for 24 hrs; type: ADME, organism-based; design: dose 5 mg/kg, time 24 hrs, route ig; details: in vivo, po
[3] = target: T1, Amine oxidase [flavin-containing] B (Homo sapiens, UniProt P27338); experiment: Inhibition of recombinant human MAO-B expressed in Sf9 cells using p-tyramine as substrate preincubated for 15 mins followed by substrate addition and measured after 60 mins by luciferin based luminescence analysis
T1 sequence (P27338 whole entry): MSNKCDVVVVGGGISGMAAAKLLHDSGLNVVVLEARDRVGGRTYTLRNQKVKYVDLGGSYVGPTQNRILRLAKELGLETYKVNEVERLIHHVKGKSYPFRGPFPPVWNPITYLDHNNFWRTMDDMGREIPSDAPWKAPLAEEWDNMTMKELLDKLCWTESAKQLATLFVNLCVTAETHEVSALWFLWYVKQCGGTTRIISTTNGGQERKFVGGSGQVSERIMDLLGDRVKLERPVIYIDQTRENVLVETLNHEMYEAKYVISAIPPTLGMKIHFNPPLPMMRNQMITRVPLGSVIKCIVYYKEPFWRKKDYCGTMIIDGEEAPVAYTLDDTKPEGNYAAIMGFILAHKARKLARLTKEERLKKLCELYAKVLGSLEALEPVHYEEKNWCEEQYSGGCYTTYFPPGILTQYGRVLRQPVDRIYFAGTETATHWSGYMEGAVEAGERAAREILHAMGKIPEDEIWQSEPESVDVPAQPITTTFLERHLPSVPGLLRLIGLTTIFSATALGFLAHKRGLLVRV

[4] = Metabolic stability in human liver microsomes assessed as half life at 1 uM incubated for 60 mins in presence of NADPH by LC-MS/MS analysis; type: ADME, Microsome
[5] = Protein binding in human plasma at 1 uM incubated for 5 hrs by LC-MS/MS based rapid equilibrium dialysis method; type: ADME, cell-free; details: read-out: PPB (converted)
CYP2C19 = CYP2C19 (Homo sapiens, UniProt P33261); experiment: Inhibition of CYP2C19 in human liver microsomes using omeprazole as substrate at 10 uM incubated for 45 mins in presence of NADPH by LC-MS/MS analysis relative to control; type: ADME, Microsome; details: probe omeprazole
CYP2B6 = target: T2, CYP2B6 (Homo sapiens, UniProt P20813); experiment: Inhibition of CYP2B6 in human liver microsomes using bupropion as substrate at 10 uM incubated for 10 mins in presence of NADPH by LC-MS/MS analysis relative to control; type: ADME, Microsome; details: probe bupropion
T2 sequence (P20813 whole entry): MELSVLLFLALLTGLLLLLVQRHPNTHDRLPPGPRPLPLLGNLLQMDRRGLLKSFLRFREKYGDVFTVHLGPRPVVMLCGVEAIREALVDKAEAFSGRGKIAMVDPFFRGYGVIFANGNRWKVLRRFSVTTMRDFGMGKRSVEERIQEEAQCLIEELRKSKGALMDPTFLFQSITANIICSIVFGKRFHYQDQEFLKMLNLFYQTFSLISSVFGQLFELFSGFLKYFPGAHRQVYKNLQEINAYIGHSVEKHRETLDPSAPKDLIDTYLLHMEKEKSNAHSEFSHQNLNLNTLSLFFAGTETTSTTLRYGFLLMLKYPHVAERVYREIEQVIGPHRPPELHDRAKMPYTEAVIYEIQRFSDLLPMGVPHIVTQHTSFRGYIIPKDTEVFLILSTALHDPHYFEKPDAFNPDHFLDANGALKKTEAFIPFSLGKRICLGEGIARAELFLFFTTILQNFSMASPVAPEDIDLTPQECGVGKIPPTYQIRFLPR

[6] = AUC (0 to t) in fasted ICR mouse at 2 mg/kg, iv measured for 24 hrs; type: ADME, organism-based; design: dose 2 mg/kg, time 24 hrs, route iv; details: in vivo
[7] = Bioavailability in fasted Sprague-Dawley rat at 5 mg/kg, IG measured for 24 hrs; type: ADME, organism-based; details: in vivo, po
[8] = Elimination half life in fasted Sprague-Dawley rat at 5 mg/kg, IG measured for 24 hrs; type: ADME, organism-based; details: in vivo, po, read-out: beta t1/2 (converted)
[9] = Apparent permeability across apical to basolateral side in MDCKII-MDR1 cells at 10 uM incubated for 30 mins by LC-MS/MS analysis; type: ADME, cell-based, Canis lupus familiaris; details: dog, MDCK-MDR1
Mus musculus [10] = experiment: In vivo inhibition of MAO-B in ICR mouse assessed as reduction in enzyme activity in brain administered once intraperitoneally for 30 to 60 mins by amplex red based assay; type: functional, organism-based; details: dose 0.08-1.28 mg/kg, route ip, time 30-60 min
Mus musculus [11] = experiment: Anti-parkinson activity in MPTP-induced dopamine deficit C57BL/6 mouse model assessed as increase in dopamine concentration in striatum at 3 to 10 mg/kg, ip pretreated with MPTP for 4 hrs followed by compound administration for 5 times once every 4 hrs further incubated with L-dopa at 50 mg/kg for 30 mins prior to last dose and measured after 30 mins by HPLC analysis; type: functional, organism-based; details: dose 3-10 mg/kg, time 16.5 hrs
[12] = Elimination half life in fasted Sprague-Dawley rat at 1 mg/kg, iv measured for 24 hrs; type: ADME, organism-based; details: in vivo, read-out: beta t1/2 (converted)
[13] = AUC (0 to t) in fasted Sprague-Dawley rat at 5 mg/kg, IG measured for 24 hrs; type: ADME, organism-based; design: dose 5 mg/kg, time 24 hrs, route ig; details: in vivo, po
[14] = Elimination half life in fasted ICR mouse at 2 mg/kg, iv measured for 24 hrs; type: ADME, organism-based; details: in vivo, read-out: beta t1/2 (converted)
Mus musculus [15] = experiment: In vivo inhibition of MAO-B in ICR mouse assessed as reduction in enzyme activity in brain at 2 mg/kg, ip administered once for 30 to 60 mins by amplex red based assay; type: functional, organism-based; details: time 30-60 min
[16] = Metabolic stability in mouse liver microsomes assessed as half life at 1 uM incubated for 60 mins in presence of NADPH by LC-MS/MS analysis; type: ADME, Microsome
[17] = AUC (0 to t) in fasted Sprague-Dawley rat at 1 mg/kg, iv measured for 24 hrs; type: ADME, organism-based; design: dose 1 mg/kg, time 24 hrs, route iv; details: in vivo
Mus musculus [18] = experiment: Anti-parkinson activity in C57BL/6 mouse model of MPTP-induced dopamine deficits assessed as increase in dopamine concentration in striatum at 1 to 3 mg/kg, ip pretreated for 30 mins followed by MPTP addition and measured after 5 days by HPLC analysis; type: functional, organism-based; details: dose 1-3 mg/kg, time 120.5 hrs

Chain of CYP2C19 (P33261 whole entry): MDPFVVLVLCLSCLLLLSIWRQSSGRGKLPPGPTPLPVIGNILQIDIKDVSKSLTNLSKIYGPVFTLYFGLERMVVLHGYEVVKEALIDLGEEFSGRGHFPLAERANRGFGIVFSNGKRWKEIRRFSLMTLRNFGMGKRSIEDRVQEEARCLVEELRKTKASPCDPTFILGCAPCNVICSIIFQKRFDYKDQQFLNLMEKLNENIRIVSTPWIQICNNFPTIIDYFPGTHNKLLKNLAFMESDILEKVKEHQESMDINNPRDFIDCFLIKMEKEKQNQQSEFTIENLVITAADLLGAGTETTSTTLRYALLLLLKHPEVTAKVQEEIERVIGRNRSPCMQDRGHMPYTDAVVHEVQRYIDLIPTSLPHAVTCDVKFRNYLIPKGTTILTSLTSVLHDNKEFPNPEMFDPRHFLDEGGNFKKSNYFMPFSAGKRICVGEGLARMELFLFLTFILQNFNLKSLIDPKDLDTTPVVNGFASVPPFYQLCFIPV

Structure (SMILES): NC(=O)[C@@H]1C[C@H](F)CN1Cc1ccc2oc(-c3ccc(F)cc3)cc2c1
- Kp at 2 h [1]: 15.5
- Cmax [2]: 436 ng/mL
- IC50 [3]: 37 nM
- half-life at 1 µM [4]: 10.4 h
- fraction unbound at 5 h, 1 µM [5]: 0.0058
- inhibition at 0.75 h, 10 µM (CYP2C19): 75.9%
- inhibition at 10 min, 10 µM (CYP2B6): 41.2%
- AUC(0-t) at 24 h [6]: 2680 ng·h/mL
- bioavailability [7]: 150%
- half-life [8]: 4.22 h
- Papp A→B at 0.5 h, 10 µM [9]: 8.78 ×10⁻⁶ cm/s
- inhibition (Mus musculus [10]): Active
- Activity (Mus musculus [11]): Active
- half-life [12]: 0.74 h
- AUC(0-t) at 24 h [13]: 2280 ng·h/mL
- half-life [14]: 3.37 h
- inhibition (Mus musculus [15]): Active
- half-life at 1 µM [16]: 2.82 h
- AUC(0-t) at 24 h [17]: 305 ng·h/mL
- Activity (Mus musculus [18]): Active
